Some test systems named below: SK-MEL-28; HCC 2998; A498; UACC-62; HOP-62; IGROV-1; TK-10; 786-0; HL-60; HCT-116; A549; NCI-H23; UO-31; HT-29; CAKI-1; SK-OV-3; OVCAR-3; MOLT-4; LOX IMVI; OVCAR-4.
Holding throughout (assay): NCI-60 cell line screen, 48 h

SMILES strings stand for the structures.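 Five concentrations, 48 hours, 96-well plates. GI50: concentration for 50% inhibition of growth.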 Active and inactive are the calls of the source. No stated cut-off is given here; in the data, active = GI50 up to about 1.1 µM and inactive = higher. Some results are limits rather than exact numbers.

Take `COc1ccc(C2C3=C(COC3=O)Oc3cc4c(cc32)OCO4)cc1OC` (configuration not stated): the GI50 in the test with SK-MEL-28 is 1.16 µM (inactive); in the test on HCC 2998 it was 0.614 µM (active); in the test with A498, 0.352 µM (active); in the test with UACC-62, 0.859 µM (active); in the test with HOP-62 it was 1.44 µM (inactive); in the test on IGROV-1, 0.713 µM (active). Also, the GI50 was 12.1 µM (inactive) in the test with TK-10; 1.04 µM (active) with 786-0; 0.208 µM (active) with HL-60; 0.465 µM (active) in the test with HCT-116; 1.27 µM (inactive) in the test with A549; 3.94 µM (inactive) in the test with NCI-H23. Moreover, the GI50 in the test on UO-31 is 3.73 µM (inactive); in the test with HT-29, 0.395 µM (active); in the test with CAKI-1, 2.82 µM (inactive); in the test on SK-OV-3 it was 0.75 µM (active); with OVCAR-3, 1.38 µM (inactive); with MOLT-4, 0.466 µM (active). Also, the GI50 was 0.65 µM (active) in the test on LOX IMVI and 37.9 µM (inactive) with OVCAR-4.
Turning to `C=C(Cl)C(Cl)(CBr)CCC(Cl)C(C)(C)Cl` (configuration not stated), the GI50 with SK-MEL-28 is 1.69 µM (inactive); with HCC 2998 it was 4.52 µM (inactive); in the test with A498, 1.77 µM (inactive); with HOP-62, 1.11 µM (active); with IGROV-1, 6.84 µM (inactive); in the test on TK-10, 1.14 µM (inactive). Further, the GI50 in the test with 786-0 was 0.388 µM (active); in the test with HL-60 it was 0.713 µM (active); in the test with HCT-116, 0.638 µM (active); in the test on A549, 2.96 µM (inactive); in the test on NCI-H23 it was 8.89 µM (inactive); in the test on UO-31 it was 2.3 µM (inactive). Besides, the GI50 was 0.331 µM (active) with HT-29; 1.08 µM (active) in the test on CAKI-1; 25.8 µM (inactive) in the test with SK-OV-3; 1.61 µM (inactive) with OVCAR-3; 17.7 µM (inactive) in the test on MOLT-4; 12.9 µM (inactive) in the test with LOX IMVI. In the test with OVCAR-4, the GI50 was 1.09 µM (active).
Turning to `O=C(O)CCSC(=O)Nc1ccccc1`, the GI50 was > 100 µM (inactive) in the test with SK-MEL-28; > 100 µM (inactive) in the test on HCC 2998; > 100 µM (inactive) in the test on A498; 64.4 µM (inactive) in the test on UACC-62; > 100 µM (inactive) in the test with HOP-62; 94.6 µM (inactive) with IGROV-1. For the same compound, the GI50 in the test with TK-10, in the test with 786-0, with HL-60, with HCT-116, with A549 and with NCI-H23 was > 100 µM (inactive) throughout. Moreover, the GI50 in the test on UO-31, with HT-29, in the test with CAKI-1, with OVCAR-3, in the test with MOLT-4 and in the test on LOX IMVI was > 100 µM (inactive) in each case. In the test with OVCAR-4, the GI50 was > 100 µM (inactive).
Regarding `CCN(CC)C1=Nc2ccccc2-n2c(C)cnc2C1`, the GI50 in the test with SK-MEL-28, with HCC 2998, with A498, with UACC-62, in the test with IGROV-1 and in the test on TK-10 was > 100 µM (inactive) each time. For the same compound, the GI50 is > 100 µM (inactive) in the test with 786-0; > 100 µM (inactive) in the test with HL-60; > 100 µM (inactive) in the test with HCT-116; > 100 µM (inactive) with A549; > 100 µM (inactive) with NCI-H23; > 88.7 µM (inactive) with UO-31. The GI50 with HT-29, in the test on CAKI-1, with SK-OV-3, with OVCAR-3, in the test with MOLT-4 and in the test on LOX IMVI was > 100 µM (inactive) in each case. Besides, the GI50 in the test with OVCAR-4 was > 100 µM (inactive).
On to `O=C1NC(Cc2ccccc2)C(=O)N2CCCC12` (configuration not stated), for which the GI50 with SK-MEL-28, in the test on HCC 2998, in the test on A498, in the test with UACC-62, in the test on HOP-62 and in the test with IGROV-1 was > 100 µM (inactive) in each case. Further, the GI50 in the test with TK-10, with 786-0, with HL-60, in the test on HCT-116, with A549 and in the test on UO-31 was > 100 µM (inactive) in each case. Moreover, the GI50 in the test with HT-29, with CAKI-1, in the test on SK-OV-3, in the test on OVCAR-3, in the test with MOLT-4 and with LOX IMVI was > 100 µM (inactive) in each case. In the test with OVCAR-4, the GI50 is > 100 µM (inactive).
In the case of `N=C(N)NCCCC(NC(=O)OCCCCn1ccc(N)nc1=O)C(=O)O` (configuration not stated), the GI50 with SK-MEL-28, in the test on HCC 2998, in the test with A498, with UACC-62, in the test on HOP-62 and in the test with IGROV-1 was > 100 µM (inactive) in each case. In addition, the GI50 with TK-10, in the test with 786-0, with HL-60, with HCT-116, with A549 and in the test on NCI-H23 was > 100 µM (inactive) in each case. The GI50 in the test with UO-31, in the test on HT-29, in the test on CAKI-1, in the test with SK-OV-3, in the test on OVCAR-3 and in the test on MOLT-4 was > 100 µM (inactive) each time. Moreover, the GI50 with LOX IMVI and in the test with OVCAR-4 was > 100 µM (inactive) each time.
For `CCC(=O)N1C(=O)OCC1C(C)C` (configuration not stated), the GI50 with HCC 2998, in the test with A498, in the test on UACC-62, in the test with HOP-62, with IGROV-1 and in the test with TK-10 was > 100 µM (inactive) each time. Besides, the GI50 in the test on 786-0, with HL-60, in the test with HCT-116, with A549, in the test on NCI-H23 and in the test on UO-31 was > 100 µM (inactive) in each case. Besides, the GI50 with HT-29, in the test on CAKI-1, with SK-OV-3, in the test with OVCAR-3, with MOLT-4 and with LOX IMVI was > 100 µM (inactive) throughout. Besides, the GI50 in the test with OVCAR-4 is > 100 µM (inactive).
As for `C[C@H]1NC(=O)C2CCCCN2C(=O)CN(C)C(=O)CNC(=O)C2CCCCN2C(=O)[C@@H](NC(=O)c2nc3ccccc3cc2O)[C@@H](C)NC(=O)C2CCCCN2C(=O)CN(C)C(=O)CNC(=O)[C@@H]2CCCCN2C(=O)C1NC(=O)c1nc2ccccc2cc1O` (some centres not stated), the GI50 in the test on SK-MEL-28 was 0.212 µM (active); in the test on HCC 2998, 0.204 µM (active); in the test with A498 it was 0.166 µM (active); with UACC-62 it was 0.0229 µM (active); with HOP-62 it was 0.251 µM (active); with IGROV-1, 0.283 µM (active). Also, the GI50 with TK-10 was 0.525 µM (active); with 786-0, 0.203 µM (active); in the test on HL-60, 2.03 µM (inactive); in the test on A549, 0.318 µM (active); in the test on NCI-H23, 0.242 µM (active); with UO-31, 0.25 µM (active). For the same compound, the GI50 in the test with HT-29 was 0.347 µM (active); with CAKI-1, 0.136 µM (active); in the test with SK-OV-3 it was 0.482 µM (active); with OVCAR-3 it was 0.209 µM (active); in the test on MOLT-4, 2.59 µM (inactive); with LOX IMVI, 0.169 µM (active). Also, in the test on OVCAR-4, the GI50 is 0.389 µM (active).
Turning to `CC(C)=CC(=O)O[C@@H]1CC(C)(C)CC2C3=CCC4[C@]56CC[C@](O)(OC5)C(C)(C)C6CC[C@@]4(C)C3(C)CC[C@]21C(=O)O` (some centres not stated), the GI50 with SK-MEL-28 was > 100 µM (inactive); in the test with HCC 2998 it was > 100 µM (inactive); in the test on A498 it was > 100 µM (inactive); with UACC-62 it was > 100 µM (inactive); in the test on HOP-62, 64.3 µM (inactive); in the test with IGROV-1, 31.8 µM (inactive). Besides, the GI50 with TK-10 is 63.1 µM (inactive); with 786-0, 69.8 µM (inactive); in the test on HL-60, 44.2 µM (inactive); in the test with HCT-116, 38 µM (inactive); in the test on A549 it was 33.7 µM (inactive); with NCI-H23, 26.1 µM (inactive). In addition, the GI50 is 38.4 µM (inactive) in the test on HT-29; > 100 µM (inactive) with CAKI-1; > 100 µM (inactive) in the test on SK-OV-3; 31.3 µM (inactive) in the test on OVCAR-3; 55.2 µM (inactive) in the test with MOLT-4; 17.1 µM (inactive) in the test with LOX IMVI. In addition, in the test with OVCAR-4, the GI50 is 63.2 µM (inactive).
Regarding `CC(C)c1ccc(C(c2ccc(OCC(=O)O)cc2)c2ccc(C(C)C)cc(=O)c2O)c(O)c(=O)c1`, the GI50 was 4.81 µM (inactive) with SK-MEL-28; 4.94 µM (inactive) in the test with HCC 2998; 23.9 µM (inactive) with A498; 3.55 µM (inactive) in the test on UACC-62; 2.79 µM (inactive) in the test with HOP-62; 4.33 µM (inactive) with IGROV-1. For the same compound, the GI50 with TK-10 was 5.3 µM (inactive); in the test with 786-0 it was 6.47 µM (inactive); with HL-60, 3.27 µM (inactive); in the test on HCT-116, 3.76 µM (inactive); in the test with A549, 3.48 µM (inactive); with NCI-H23 it was 3.78 µM (inactive). Also, the GI50 is 3.92 µM (inactive) in the test with HT-29; 3.82 µM (inactive) in the test on CAKI-1; 6.81 µM (inactive) with SK-OV-3; 2.77 µM (inactive) with OVCAR-3; 3.73 µM (inactive) in the test on MOLT-4; 3.71 µM (inactive) with LOX IMVI. In addition, the GI50 in the test with OVCAR-4 was 3.61 µM (inactive).
